Results from ChEMBL document CHEMBL2062359, “Pyrimidinopyrimidine inhibitors of ketohexokinase: exploring the ring C2 group that interacts with Asp-27B in the ligand binding pocket” (Bioorg Med Chem Lett, 2012).

Legend:
[1] = biological target: T1, Ketohexokinase (Homo sapiens, UniProt P50053); experiment: Inhibition of recombinant human hepatic KHKC
T1 sequence (P50053 whole entry): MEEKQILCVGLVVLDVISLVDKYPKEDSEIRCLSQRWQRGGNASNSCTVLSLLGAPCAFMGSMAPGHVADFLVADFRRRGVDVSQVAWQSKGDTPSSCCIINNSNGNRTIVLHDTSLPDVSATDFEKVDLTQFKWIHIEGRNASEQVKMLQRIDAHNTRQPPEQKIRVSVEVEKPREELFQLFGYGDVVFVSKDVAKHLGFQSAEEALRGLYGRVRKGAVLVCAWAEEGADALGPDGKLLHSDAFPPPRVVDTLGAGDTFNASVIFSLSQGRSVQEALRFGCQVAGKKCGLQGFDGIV

[2] = biological target: Tyrosine-protein kinase ABL1 (Homo sapiens, UniProt P00519); experiment: Inhibition of ABL1 by FRET assay
[3] = biological target: Activin receptor type-1B (Homo sapiens, UniProt P36896); experiment: Inhibition of ALK4 by FRET assay
[4] = biological target: RAC-alpha serine/threonine-protein kinase (Homo sapiens, UniProt P31749); experiment: Inhibition of AKT1 by FRET assay
[5] = biological target: AMP-activated protein kinase (AMPK) alpha-1/beta-1/gamma-1 (Homo sapiens, UniProt P54619+Q13131+Q9Y478); experiment: Inhibition of AMPK A1/B1/G1 by FRET assay; type: protein-complex assay
[6] = biological target: Aurora kinase A (Homo sapiens, UniProt O14965); experiment: Inhibition of AURKA by FRET assay
[7] = biological target: Calcium/calmodulin-dependent protein kinase type 1D (Homo sapiens, UniProt Q8IU85); experiment: Inhibition of CAMK1D by FRET assay
[8] = biological target: Cyclin-dependent kinase 1/cyclin B1 (Homo sapiens, UniProt P06493); experiment: Inhibition of CDK1/cyclin B by FRET assay; type: protein-complex assay
[9] = biological target: Serine/threonine-protein kinase Chk1 (Homo sapiens, UniProt O14757); experiment: Inhibition of CHEK1 by FRET assay
[10] = biological target: Serine/threonine-protein kinase Chk2 (Homo sapiens, UniProt O96017); experiment: Inhibition of CHEK2 by FRET assay
[11] = biological target: Casein kinase I isoform delta (Homo sapiens, UniProt P48730); experiment: Inhibition of CSNK1D by FRET assay
[12] = biological target: Death-associated protein kinase 3 (Homo sapiens, UniProt O43293); experiment: Inhibition of DAPK3 by FRET assay
[13] = biological target: Ephrin type-B receptor 1 (Homo sapiens, UniProt P54762); experiment: Inhibition of EPHB1 by FRET assay
[14] = biological target: Glycogen synthase kinase-3 beta (Homo sapiens, UniProt P49841); experiment: Inhibition of GSK3B by FRET assay
[15] = biological target: Interleukin-1 receptor-associated kinase 4 (Homo sapiens, UniProt Q9NWZ3); experiment: Inhibition of IRAK4 by FRET assay
[16] = biological target: Tyrosine-protein kinase JAK2 (Homo sapiens, UniProt O60674); experiment: Inhibition of JAK2 by FRET assay
[17] = biological target: Mitogen-activated protein kinase 13 (Homo sapiens, UniProt O15264); experiment: Inhibition of MAPK13 by FRET assay
[18] = biological target: Serine/threonine-protein kinase 26 (Homo sapiens, UniProt Q9P289); experiment: Inhibition of MST4 by FRET assay
[19] = biological target: Serine/threonine-protein kinase Nek2 (Homo sapiens, UniProt P51955); experiment: Inhibition of NEK2 by FRET assay
[20] = biological target: High affinity nerve growth factor receptor (Homo sapiens, UniProt P04629); experiment: Inhibition of NTRK1 by FRET assay
[21] = biological target: Serine/threonine-protein kinase PAK 3 (Homo sapiens, UniProt O75914); experiment: Inhibition of PAK3 by FRET assay
[22] = biological target: Serine/threonine-protein kinase pim-2 (Homo sapiens, UniProt Q9P1W9); experiment: Inhibition of PIM2 by FRET assay
[23] = biological target: Serine/threonine-protein kinase PLK3 (Homo sapiens, UniProt Q9H4B4); experiment: Inhibition of PLK3 by FRET assay
[24] = biological target: cAMP-dependent protein kinase catalytic subunit alpha (Homo sapiens, UniProt P17612); experiment: Inhibition of PRKACA by FRET assay
[25] = biological target: Protein kinase C theta type (Homo sapiens, UniProt Q04759); experiment: Inhibition of PRKCQ by FRET assay
[26] = biological target: Rho-associated protein kinase 1 (Homo sapiens, UniProt Q13464); experiment: Inhibition of ROCK1 by FRET assay
[27] = biological target: Ribosomal protein S6 kinase alpha-3 (Homo sapiens, UniProt P51812); experiment: Inhibition of RPS6KA3 by FRET assay
[28] = biological target: T1, Ketohexokinase; experiment: Inhibition of KHKC in human HepG2 cells assessed as level of fructose-1-phosphate; type: cell-based

Chain of Serine/threonine-protein kinase pim-2 (Q9P1W9 whole entry): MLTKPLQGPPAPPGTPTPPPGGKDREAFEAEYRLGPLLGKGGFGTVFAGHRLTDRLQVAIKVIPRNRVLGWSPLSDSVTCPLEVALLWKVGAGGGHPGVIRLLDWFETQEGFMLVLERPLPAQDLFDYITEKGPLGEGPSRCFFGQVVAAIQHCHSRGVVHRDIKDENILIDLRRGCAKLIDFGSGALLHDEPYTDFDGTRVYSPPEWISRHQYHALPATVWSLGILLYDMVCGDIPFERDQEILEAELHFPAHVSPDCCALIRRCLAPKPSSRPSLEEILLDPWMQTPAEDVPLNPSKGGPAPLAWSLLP
Chain of Serine/threonine-protein kinase 26 (Q9P289 whole entry): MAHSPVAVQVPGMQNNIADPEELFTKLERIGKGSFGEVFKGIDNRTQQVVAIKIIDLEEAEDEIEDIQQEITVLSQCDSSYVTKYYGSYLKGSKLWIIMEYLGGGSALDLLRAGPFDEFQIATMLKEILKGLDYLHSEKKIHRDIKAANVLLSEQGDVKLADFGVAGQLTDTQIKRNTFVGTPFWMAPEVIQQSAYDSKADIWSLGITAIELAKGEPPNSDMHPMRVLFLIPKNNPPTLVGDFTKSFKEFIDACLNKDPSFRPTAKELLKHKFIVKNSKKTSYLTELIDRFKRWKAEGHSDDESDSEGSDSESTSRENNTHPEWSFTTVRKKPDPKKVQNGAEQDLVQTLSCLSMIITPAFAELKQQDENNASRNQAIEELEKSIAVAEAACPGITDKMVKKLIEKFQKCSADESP
Chain of High affinity nerve growth factor receptor (P04629 whole entry): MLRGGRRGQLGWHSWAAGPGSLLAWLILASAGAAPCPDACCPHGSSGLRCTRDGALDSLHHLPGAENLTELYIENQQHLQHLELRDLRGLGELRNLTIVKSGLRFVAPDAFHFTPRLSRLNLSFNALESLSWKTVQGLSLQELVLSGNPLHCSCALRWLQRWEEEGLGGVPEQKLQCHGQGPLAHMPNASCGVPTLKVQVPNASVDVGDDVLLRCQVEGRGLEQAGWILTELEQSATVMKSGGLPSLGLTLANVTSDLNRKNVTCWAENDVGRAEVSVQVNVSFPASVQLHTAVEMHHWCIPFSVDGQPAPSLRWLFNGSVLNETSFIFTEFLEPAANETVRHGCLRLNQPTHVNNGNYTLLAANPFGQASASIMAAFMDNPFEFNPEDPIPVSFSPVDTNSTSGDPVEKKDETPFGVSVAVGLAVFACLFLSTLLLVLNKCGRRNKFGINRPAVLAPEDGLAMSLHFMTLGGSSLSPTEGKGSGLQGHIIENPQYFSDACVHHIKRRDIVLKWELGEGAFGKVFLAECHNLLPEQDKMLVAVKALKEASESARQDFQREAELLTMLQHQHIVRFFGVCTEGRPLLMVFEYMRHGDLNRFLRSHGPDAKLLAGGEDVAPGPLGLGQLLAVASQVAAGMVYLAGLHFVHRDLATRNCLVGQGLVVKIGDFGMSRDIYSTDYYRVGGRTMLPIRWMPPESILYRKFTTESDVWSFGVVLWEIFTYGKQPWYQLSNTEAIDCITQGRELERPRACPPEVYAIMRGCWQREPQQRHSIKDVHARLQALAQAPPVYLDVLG
Chain of Rho-associated protein kinase 1 (Q13464 whole entry): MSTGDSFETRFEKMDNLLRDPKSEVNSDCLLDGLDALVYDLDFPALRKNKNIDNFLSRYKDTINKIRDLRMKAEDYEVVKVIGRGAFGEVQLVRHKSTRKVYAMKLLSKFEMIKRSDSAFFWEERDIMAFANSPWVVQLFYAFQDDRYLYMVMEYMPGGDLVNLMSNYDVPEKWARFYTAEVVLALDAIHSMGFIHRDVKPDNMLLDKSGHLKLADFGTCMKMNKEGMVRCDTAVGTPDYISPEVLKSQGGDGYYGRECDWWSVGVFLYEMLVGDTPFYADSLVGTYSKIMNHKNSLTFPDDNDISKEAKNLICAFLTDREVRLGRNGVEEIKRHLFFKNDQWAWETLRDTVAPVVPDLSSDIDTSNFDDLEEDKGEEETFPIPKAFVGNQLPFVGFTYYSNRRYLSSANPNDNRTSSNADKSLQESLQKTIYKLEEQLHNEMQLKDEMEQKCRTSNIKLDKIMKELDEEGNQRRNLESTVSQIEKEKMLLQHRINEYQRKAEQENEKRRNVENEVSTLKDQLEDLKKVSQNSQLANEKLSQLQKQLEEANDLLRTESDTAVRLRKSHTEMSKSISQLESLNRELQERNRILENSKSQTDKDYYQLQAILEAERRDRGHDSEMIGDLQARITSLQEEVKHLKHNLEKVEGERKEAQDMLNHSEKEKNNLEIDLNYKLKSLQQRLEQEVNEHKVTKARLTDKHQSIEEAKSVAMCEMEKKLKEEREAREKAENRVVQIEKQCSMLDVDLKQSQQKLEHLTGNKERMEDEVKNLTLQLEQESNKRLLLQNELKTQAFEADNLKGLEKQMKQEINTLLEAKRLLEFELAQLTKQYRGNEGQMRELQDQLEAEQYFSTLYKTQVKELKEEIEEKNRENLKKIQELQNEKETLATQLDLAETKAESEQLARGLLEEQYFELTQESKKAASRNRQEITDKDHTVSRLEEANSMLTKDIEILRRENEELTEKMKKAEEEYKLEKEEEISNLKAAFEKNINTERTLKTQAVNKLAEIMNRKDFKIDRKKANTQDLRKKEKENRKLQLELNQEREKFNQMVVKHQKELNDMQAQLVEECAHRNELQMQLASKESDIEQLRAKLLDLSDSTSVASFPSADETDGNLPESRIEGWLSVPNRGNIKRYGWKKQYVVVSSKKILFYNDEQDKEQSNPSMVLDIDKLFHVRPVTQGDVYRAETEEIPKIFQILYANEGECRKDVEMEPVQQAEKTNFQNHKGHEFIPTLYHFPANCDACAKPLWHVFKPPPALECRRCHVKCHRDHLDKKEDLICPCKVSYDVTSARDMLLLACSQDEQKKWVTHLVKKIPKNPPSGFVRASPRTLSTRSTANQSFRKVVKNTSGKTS
Chain of Serine/threonine-protein kinase Chk2 (O96017 whole entry, canonical isoform): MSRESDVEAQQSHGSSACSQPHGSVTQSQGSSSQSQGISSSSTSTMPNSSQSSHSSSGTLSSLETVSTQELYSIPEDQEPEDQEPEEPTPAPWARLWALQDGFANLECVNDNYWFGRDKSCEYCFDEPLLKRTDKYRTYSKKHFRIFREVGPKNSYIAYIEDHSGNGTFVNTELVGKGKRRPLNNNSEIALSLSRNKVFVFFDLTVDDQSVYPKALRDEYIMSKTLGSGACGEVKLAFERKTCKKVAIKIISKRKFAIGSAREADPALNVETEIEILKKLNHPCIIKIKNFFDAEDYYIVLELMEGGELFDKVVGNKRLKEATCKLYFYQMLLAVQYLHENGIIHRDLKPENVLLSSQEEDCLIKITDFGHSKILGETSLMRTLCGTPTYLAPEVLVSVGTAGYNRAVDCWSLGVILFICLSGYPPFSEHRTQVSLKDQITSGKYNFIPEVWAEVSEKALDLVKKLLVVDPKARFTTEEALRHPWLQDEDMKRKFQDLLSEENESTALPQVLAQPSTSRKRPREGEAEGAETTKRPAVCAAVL
Chain of Interleukin-1 receptor-associated kinase 4 (Q9NWZ3 whole entry): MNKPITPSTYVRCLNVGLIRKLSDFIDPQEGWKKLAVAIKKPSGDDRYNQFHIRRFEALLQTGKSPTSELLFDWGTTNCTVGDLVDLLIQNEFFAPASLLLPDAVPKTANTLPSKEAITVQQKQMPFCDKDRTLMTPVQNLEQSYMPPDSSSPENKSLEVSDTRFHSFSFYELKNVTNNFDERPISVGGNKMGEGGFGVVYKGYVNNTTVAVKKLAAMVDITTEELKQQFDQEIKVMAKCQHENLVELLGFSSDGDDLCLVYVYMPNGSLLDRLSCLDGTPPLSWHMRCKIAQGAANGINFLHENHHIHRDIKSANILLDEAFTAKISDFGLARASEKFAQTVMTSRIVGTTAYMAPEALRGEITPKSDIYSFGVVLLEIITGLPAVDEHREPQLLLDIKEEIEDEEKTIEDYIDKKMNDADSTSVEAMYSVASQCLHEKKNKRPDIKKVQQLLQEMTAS
Chain of Casein kinase I isoform delta (P48730 whole entry, canonical isoform): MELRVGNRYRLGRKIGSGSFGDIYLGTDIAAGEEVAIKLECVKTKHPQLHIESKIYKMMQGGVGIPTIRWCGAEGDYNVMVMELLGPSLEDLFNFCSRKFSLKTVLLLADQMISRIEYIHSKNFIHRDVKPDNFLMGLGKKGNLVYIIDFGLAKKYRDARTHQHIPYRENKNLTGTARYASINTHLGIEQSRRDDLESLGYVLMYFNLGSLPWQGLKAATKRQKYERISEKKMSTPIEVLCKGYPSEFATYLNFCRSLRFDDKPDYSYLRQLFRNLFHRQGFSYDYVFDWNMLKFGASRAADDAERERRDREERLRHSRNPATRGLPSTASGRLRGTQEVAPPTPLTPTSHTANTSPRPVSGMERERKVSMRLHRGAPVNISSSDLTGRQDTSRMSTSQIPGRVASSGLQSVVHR
Chain of Aurora kinase A (O14965 whole entry): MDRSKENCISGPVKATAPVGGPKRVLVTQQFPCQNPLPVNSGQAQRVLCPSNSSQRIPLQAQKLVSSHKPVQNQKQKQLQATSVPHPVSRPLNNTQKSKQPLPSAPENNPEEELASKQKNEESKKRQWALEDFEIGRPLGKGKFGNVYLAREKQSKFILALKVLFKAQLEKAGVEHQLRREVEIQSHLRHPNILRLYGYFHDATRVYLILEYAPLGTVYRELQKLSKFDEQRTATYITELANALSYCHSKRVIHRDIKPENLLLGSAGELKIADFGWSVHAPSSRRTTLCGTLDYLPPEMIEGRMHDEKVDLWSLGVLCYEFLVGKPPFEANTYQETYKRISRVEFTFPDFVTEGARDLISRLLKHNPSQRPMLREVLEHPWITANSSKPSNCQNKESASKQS

Compound `CSc1ccccc1Nc1nc(N2CCC(N3CCN(C)CC3)CC2)nc2c(NCC3CC3)ncnc12` has an IC50 [1] of 30 nM.

In the case of `CSc1ccccc1Nc1nc(N2CCC(N3CCNCC3)CC2)nc2c(NCC3CC3)ncnc12`, the IC50 [1] is reported as 28 nM.

Work on `CSc1ccccc1Nc1nc(N2C3CCC2CC(N)C3)nc2c(NCC3CC3)ncnc12` (stereo not given) yielded an IC50 [1] of 800 nM.

`CSc1ccccc1Nc1nc(N2CCNC[C@H]2C)nc2c(NCC3CC3)ncnc12` gave an IC50 [1] of 58 nM.

`CSc1ccccc1Nc1nc(N2C[C@@H]3C[C@H]2CN3)nc2c(NCC3CC3)ncnc12` was tested, and the IC50 [1] was 4600 nM.

With `CSc1ccccc1Nc1nc(N2CCN(C3CCNCC3)CC2)nc2c(NCC3CC3)ncnc12` the IC50 [1] was 48 nM, the IC50 [2] was under 10000 nM and the IC50 [3] was under 10000 nM. It also gave an IC50 [4] of under 10000 nM, an IC50 [5] of under 10000 nM and an IC50 [6] of under 10000 nM. The IC50 [7] was under 10000 nM, the IC50 [8] was under 10000 nM and the IC50 [9] was under 10000 nM. For the same compound, the IC50 [10] was under 10000 nM, the IC50 [11] was under 10000 nM and the IC50 [12] was under 10000 nM. It also gave an IC50 [13] of under 10000 nM, an IC50 [14] of under 10000 nM and an IC50 [15] of under 10000 nM. It also gave an IC50 [16] of under 10000 nM, an IC50 [17] of under 10000 nM and an IC50 [18] of under 10000 nM. The IC50 [19] was under 10000 nM, the IC50 [20] was under 10000 nM and the IC50 [21] was under 10000 nM. It also gave an IC50 [22] of under 10000 nM, an IC50 [23] of under 10000 nM and an IC50 [24] of under 10000 nM. It also gave an IC50 [25] of under 10000 nM, an IC50 [26] of under 10000 nM and an IC50 [27] of under 10000 nM.

`CSc1ccccc1Nc1nc(N(C)CC2CCNCC2)nc2c(NCC3CC3)ncnc12` showed an IC50 [1] of 66 nM.

With `CSc1ccccc1Nc1nc(N2CCNc3ccccc3C2)nc2c(NCC3CC3)ncnc12` the IC50 [1] was 6000 nM.

With `CSc1ccccc1Nc1nc(N2C[C@@H]3CCCN[C@@H]3C2)nc2c(NCC3CC3)ncnc12` the IC50 [1] was 300 nM.

For `CSc1ccccc1Nc1nc(N2C[C@@H](C)N[C@@H](C)C2)nc2c(NCC3CC3)ncnc12`, the IC50 [1] was 110 nM.

In the case of `CSc1ccccc1Nc1nc(N2CCC3(CCNCC3)CC2)nc2c(NCC3CC3)ncnc12`, the IC50 [1] is reported as 15 nM.

In the case of `CSc1ccccc1Nc1nc(N2CCNCC2)nc2c(NCC3CC3)ncnc12`, the IC50 [28] is reported as under 500 nM.

`CSc1ccccc1Nc1nc(N2CCC3(CNC3)C2)nc2c(NCC3CC3)ncnc12` gave an IC50 [1] of 2 nM and an IC50 [28] of 150 nM.

Compound `CSc1ccccc1Nc1nc(N2CCNC(C)C2)nc2c(NCC3CC3)ncnc12` (stereo not given) has an IC50 [1] of 70 nM.

`CSc1ccccc1Nc1nc(N2CCC(C3CCNCC3)CC2)nc2c(NCC3CC3)ncnc12` was tested, and the IC50 [1] was 50 nM.

`CSc1ccccc1Nc1nc(N2CCNC(C)(C)C2)nc2c(NCC3CC3)ncnc12` showed an IC50 [1] of 40 nM.

`CSc1ccccc1Nc1nc(N2CCC3(CCNC3)C2)nc2c(NCC3CC3)ncnc12` (stereo not given) gave an IC50 [1] of 43 nM.

`CSc1ccccc1Nc1nc(N2CCC[C@@H]3CNC[C@@H]32)nc2c(NCC3CC3)ncnc12` showed an IC50 [1] of 440 nM.
